The values that follow come from ChEMBL document CHEMBL1208707, “T-type calcium channel blockers: spiro-piperidine azetidines and azetidinones-optimization, design and synthesis” (Bioorg Med Chem Lett, 2010).

Data set [1] deals with Transient receptor potential cation channel subfamily V member 1 (Homo sapiens) (UniProt Q8NER1). In words: Inhibition of TRPV1 expressed in HEK293 assessed as capsaicin activation cells at 3.3 ug/mL by FLIPR assay. The class given is cell-based.
The target in data set [2] is T1, Voltage-dependent T-type calcium channel subunit alpha-1H (Homo sapiens, UniProt O95180). In words: Inhibition of human CaV3.2 expressed in HEK293 cells at -100 mV membrane potential by Ionworks HT assay. The data set is classed as cell-based. For orientation: The patch-clamp technique gives a direct electrical read-out from membranes.
T1 sequence (O95180 whole entry): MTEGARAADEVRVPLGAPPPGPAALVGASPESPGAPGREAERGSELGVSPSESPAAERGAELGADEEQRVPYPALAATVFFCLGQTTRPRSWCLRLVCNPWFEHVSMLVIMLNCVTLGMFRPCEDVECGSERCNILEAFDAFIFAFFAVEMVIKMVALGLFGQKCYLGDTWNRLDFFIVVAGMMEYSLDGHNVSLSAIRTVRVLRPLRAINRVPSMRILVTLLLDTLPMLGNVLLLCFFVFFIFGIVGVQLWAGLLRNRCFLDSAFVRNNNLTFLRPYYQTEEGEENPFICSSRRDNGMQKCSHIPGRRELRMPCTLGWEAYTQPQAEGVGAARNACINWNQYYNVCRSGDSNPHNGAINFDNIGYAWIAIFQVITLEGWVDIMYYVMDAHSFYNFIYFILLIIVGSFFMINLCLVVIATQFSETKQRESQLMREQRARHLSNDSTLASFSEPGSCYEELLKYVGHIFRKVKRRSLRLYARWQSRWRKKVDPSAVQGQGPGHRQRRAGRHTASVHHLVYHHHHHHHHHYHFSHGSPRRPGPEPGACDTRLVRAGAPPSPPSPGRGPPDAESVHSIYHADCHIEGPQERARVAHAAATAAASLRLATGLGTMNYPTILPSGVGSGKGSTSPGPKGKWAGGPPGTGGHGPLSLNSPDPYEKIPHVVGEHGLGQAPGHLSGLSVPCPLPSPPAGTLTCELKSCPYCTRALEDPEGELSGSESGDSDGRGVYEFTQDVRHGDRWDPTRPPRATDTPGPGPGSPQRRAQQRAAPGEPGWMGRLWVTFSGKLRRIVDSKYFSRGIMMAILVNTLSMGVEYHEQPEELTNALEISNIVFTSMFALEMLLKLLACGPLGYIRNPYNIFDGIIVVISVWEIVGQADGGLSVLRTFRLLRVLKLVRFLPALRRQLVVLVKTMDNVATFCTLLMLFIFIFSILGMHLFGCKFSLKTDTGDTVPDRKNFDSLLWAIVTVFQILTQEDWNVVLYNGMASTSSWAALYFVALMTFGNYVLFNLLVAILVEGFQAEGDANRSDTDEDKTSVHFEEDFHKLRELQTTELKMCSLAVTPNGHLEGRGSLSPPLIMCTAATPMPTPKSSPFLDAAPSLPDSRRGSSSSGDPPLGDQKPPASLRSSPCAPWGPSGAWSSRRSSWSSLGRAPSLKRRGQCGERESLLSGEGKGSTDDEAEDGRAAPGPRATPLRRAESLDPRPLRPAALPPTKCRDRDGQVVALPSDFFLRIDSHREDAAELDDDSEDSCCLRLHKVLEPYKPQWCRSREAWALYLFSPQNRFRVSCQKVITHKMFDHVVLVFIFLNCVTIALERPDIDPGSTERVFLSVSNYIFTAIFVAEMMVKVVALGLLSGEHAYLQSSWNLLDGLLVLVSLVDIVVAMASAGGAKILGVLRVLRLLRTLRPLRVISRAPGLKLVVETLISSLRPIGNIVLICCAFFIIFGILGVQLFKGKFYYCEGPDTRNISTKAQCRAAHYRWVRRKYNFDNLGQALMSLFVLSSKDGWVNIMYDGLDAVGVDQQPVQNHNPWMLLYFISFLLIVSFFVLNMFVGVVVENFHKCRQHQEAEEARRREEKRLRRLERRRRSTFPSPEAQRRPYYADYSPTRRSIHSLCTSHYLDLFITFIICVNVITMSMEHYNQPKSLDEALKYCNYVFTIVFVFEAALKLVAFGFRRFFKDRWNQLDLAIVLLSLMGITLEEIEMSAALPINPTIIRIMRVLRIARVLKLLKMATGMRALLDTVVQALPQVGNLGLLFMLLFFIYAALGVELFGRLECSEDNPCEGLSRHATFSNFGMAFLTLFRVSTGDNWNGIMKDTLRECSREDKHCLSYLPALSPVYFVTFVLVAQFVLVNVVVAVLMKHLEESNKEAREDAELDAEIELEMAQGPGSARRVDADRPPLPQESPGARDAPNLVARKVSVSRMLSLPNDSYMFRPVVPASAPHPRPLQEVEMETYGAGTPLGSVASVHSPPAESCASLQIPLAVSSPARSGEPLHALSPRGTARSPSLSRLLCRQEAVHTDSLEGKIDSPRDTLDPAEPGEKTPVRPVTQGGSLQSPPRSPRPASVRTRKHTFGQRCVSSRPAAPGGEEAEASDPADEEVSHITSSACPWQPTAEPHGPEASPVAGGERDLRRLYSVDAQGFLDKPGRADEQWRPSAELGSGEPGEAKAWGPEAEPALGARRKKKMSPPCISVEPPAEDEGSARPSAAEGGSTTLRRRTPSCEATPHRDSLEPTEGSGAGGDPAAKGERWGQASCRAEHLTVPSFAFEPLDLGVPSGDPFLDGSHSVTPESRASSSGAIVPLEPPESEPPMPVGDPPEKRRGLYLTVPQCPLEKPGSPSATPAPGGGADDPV
Data set [3] has as its target T1, Voltage-dependent T-type calcium channel subunit alpha-1H. In words: Inhibition of human CaV3.2 expressed in HEK293 cells at -100 mV membrane potential by whole cell path clamp method. The data set is classed as cell-based.
A short description of data set [4]: Protein binding in rat plasma. The class given is ADME, cell-free. Conditions: read-out: PPB (converted).

Sequence of Transient receptor potential cation channel subfamily V member 1 (Homo sapiens) (Q8NER1 whole entry): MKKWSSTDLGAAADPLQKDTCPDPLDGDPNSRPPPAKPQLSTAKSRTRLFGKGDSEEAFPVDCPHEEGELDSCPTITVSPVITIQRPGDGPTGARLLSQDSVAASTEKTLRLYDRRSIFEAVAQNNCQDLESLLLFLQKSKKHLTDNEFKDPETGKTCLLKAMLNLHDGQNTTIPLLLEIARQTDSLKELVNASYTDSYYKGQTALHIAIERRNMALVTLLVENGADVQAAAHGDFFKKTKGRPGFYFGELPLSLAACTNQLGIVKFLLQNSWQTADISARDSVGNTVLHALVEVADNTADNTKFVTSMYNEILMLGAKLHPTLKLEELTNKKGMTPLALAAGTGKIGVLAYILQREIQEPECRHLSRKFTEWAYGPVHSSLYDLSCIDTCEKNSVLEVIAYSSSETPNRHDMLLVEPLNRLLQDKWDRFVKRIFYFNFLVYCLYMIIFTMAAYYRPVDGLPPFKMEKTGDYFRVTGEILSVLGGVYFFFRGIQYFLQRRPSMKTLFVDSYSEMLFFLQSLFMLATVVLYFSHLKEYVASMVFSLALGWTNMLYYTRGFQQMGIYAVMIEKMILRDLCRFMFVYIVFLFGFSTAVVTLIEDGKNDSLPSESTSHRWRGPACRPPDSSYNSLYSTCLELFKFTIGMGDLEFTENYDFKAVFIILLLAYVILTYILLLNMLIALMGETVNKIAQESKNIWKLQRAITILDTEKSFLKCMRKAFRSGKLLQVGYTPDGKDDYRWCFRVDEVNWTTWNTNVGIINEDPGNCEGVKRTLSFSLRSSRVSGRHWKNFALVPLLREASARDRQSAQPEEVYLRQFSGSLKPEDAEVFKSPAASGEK

A word on the inhibition: it is the share of the control response that was lost under treatment. For `N#Cc1cccc(NC(=O)N2CCC3(CC2)C(=O)N(c2cccc(F)c2)C3c2ccc(Cl)cc2)c1` (stereo in doubt; 37b) [listing 1 of 2 here], in data set [1], the inhibition came to 12.7%. Still for that read-out and setting: the result for `COC(=O)[C@H](COC(C)(C)C)NC(=O)N1CCC2(CC1)C(=O)N(c1cccc(F)c1)C2c1ccc(Cl)cc1` (stereo not given in full) reads 4.4%; that for `O=C(Nc1cc(F)cc(F)c1)N1CCC2(CC1)C(=O)N(c1cncc(Cl)c1)C2c1ccccn1` (racemic), 6.7%; that for `N#Cc1cccc(NC(=O)N2CCC3(CC2)C(=O)N(c2cccc(Cl)c2)C3c2ccccn2)c1` (stereo in doubt; 43a), 30%.

By IC50 is commonly meant the concentration at which inhibition is half-maximal. In the case of `O=C1N(c2cccc(Cl)c2)C(c2ccccn2)C12CCN(c1nc3cc(F)c(C(F)(F)F)cc3[nH]1)CC2` (stereo not given), the figures for the IC50 in data set [2] and in data set [3] were 0.044 µM and 0.063 µM, respectively. Moreover, the inhibition in data set [1] was found to be 37.9%.

Take `O=C(Nc1cc(F)cc(F)c1)N1CCC2(CC1)CN(c1ccc(F)c(Cl)c1)C2c1ccccn1` (stereo in doubt; 38b): in data set [2], the IC50 came out at 0.291 µM. Also, the fraction unbound in data set [4] was 0.001. For `O=C(Nc1cc(F)cc(F)c1)N1CCC2(CC1)CN(c1cccc(F)c1)C2c1ccc(Cl)cc1` (stereo in doubt; 35b) [listing 1 of 2 here], the IC50 in data set [2] was 3.2 µM.

`CN1C(=O)C2(CCN(C(=O)Nc3cc(F)cc(F)c3)CC2)C1c1ccc(Cl)cc1` (racemic): the IC50 in data set [2] was found to be 0.92 µM. Moreover, in data set [1], the inhibition amounted to 20.7%. For the same compound, the fraction unbound in data set [4] is 0.034. Regarding `CC[C@H](C)[C@H](NC(=O)N1CCC2(CC1)CN(C)C2c1ccc(Cl)cc1)C(=O)OC` (mixture of isomers), the IC50 in data set [2] was 0.41 µM. Besides, in data set [1], the inhibition came out at 25.2%. Take `O=C(Nc1cc(F)cc(F)c1)N1CCC2(CC1)CN(c1cccc(F)c1)C2c1ccc(Cl)cc1` (stereo in doubt; 35b) [listing 2 of 2 here]: the inhibition in data set [1] came to 30.1%. In the case of `O=C(Nc1cc(F)cc(F)c1)N1CCC2(CC1)C(=O)N(c1cccc(Cl)c1)C2c1ccccn1` (stereo in doubt; 44a), in data set [1], the inhibition was found to be 38%. Regarding `O=C1N(c2ccc(F)c(Cl)c2)C(c2ccccn2)C12CCN(c1nc3cc(F)c(C(F)(F)F)cc3[nH]1)CC2` (stereo in doubt; 52b), the IC50 came to 0.031 µM in data set [2] and 0.106 µM in data set [3].

On to `CC[C@H](C)[C@H](NC(=O)N1CCC2(CC1)C(=O)N(c1cccc(F)c1)C2c1ccc(Cl)cc1)C(=O)OC(C)C` (stereo not given in full), for which the inhibition in data set [1] stood at 18%. Take `CC[C@H](C)[C@H](NC(=O)N1CCC2(CC1)C(=O)N(c1cccc(F)c1)C2c1ccc(Cl)cc1)C(=O)OC#N` (stereo not given in full): the IC50 in data set [2] came to 0.035 µM; in data set [3], 17 µM. Consider `CC[C@H](C)[C@H](NC(=O)N1CCC2(CC1)C(=O)N(c1cccc(F)c1)C2c1ccc(Cl)cc1)C(=O)OC` (stereo in doubt; 23b) [listing 1 of 2 here], for which the inhibition in data set [1] was found to be 8.79%. Take `C[C@H](NC(=O)N1CCC2(CC1)C(=O)N(c1cccc(F)c1)C2c1ccc(Cl)cc1)c1ccc(F)cc1` (stereo not given in full): the inhibition in data set [1] was found to be 2.4%. Moreover, in data set [4], the fraction unbound is 0.001. For `O=C(Nc1cc(F)cc(F)c1)N1CCC2(CC1)C(=O)N(C1CC1)C2c1ccc(Cl)cc1` (racemic), in data set [2], the IC50 was found to be 2.26 µM. Further, the inhibition in data set [1] came out at 34.2%. In the case of `CC[C@H](C)[C@H](NC(=O)N1CCC2(CC1)CN(C(C)C)C2c1ccc(Cl)cc1)C(=O)OC` (stereo in doubt; 2), the inhibition in data set [1] came out at 87.1%.

`CC[C@H](C)[C@H](NC(=O)N1CCC2(CC1)CN(C(C)C)C2c1ccc(Cl)cc1)C(=O)OC` (stereo in doubt; 2a): the IC50 was determined as 0.115 µM in data set [2] and 0.124 µM in data set [3]. With `CC(C)N1CC2(CCN(C(=O)Nc3cc(F)cc(F)c3)CC2)C1c1ccc(F)cc1` (racemic), the IC50 in data set [2] stood at 0.172 µM; in data set [3] it was 0.995 µM. The inhibition in data set [1] is 46.5%. Take `O=C(Nc1ccc(F)c(F)c1)N1CCC2(CC1)C(=O)N(c1cccc(Cl)c1)C2c1ccccn1` (stereo in doubt; 42b): the inhibition in data set [1] is 89%. `CCC(C)NC(=O)N1CCC2(CC1)C(=O)N(c1cccc(F)c1)C2c1ccc(Cl)cc1` (stereo not given): the IC50 in data set [2] was determined as 1.25 µM. The inhibition in data set [1] was found to be 5.2%.

With `N#Cc1cccc(NC(=O)N2CCC3(CC2)C(=O)N(c2cccc(F)c2)C3c2ccc(Cl)cc2)c1` (stereo in doubt; 37a), the inhibition in data set [1] is 4.79%. Turning to `CC[C@H](C)[C@H](NC(=O)N1CCC2(CC1)CN(C(C)C)C2c1ccc(F)cc1)C(=O)OC` (mixture of isomers), in data set [2], the half-maximal inhibitory concentration (IC50) worked out at 0.256 µM. For the same compound, the inhibition in data set [1] was determined as 13.4%.

Consider `CC[C@H](C)[C@H](NC(=O)N1CCC2(CC1)CN(c1cccc(F)c1)C2c1ccc(Cl)cc1)C(=O)OC` (stereo in doubt; 22b) [listing 1 of 2 here], for which, in data set [2], the IC50 amounted to 3.2 µM. For `O=C(Nc1cc(F)cc(F)c1)N1CCC2(CC1)CN(c1cccc(F)c1)C2c1ccc(Cl)cc1` (stereo in doubt; 35a) [listing 1 of 2 here], the IC50 in data set [2] turned out to be 3.5 µM. As to `O=C(Nc1cc(F)cc(F)c1)N1CCC2(CC1)C(=O)N(c1cccc(F)c1)C2c1ccc(Cl)cc1` (stereo in doubt; 36a) [listing 1 of 2 here], in data set [2], the IC50 turned out to be 0.586 µM. On to `N#Cc1cccc(N2C(=O)C3(CCN(C(=O)Nc4cc(F)cc(F)c4)CC3)C2c2ccccn2)c1` (stereo not given), for which, in data set [3], the IC50 was found to be 19.3 µM. With `N#Cc1cccc(N2C(=O)C3(CCN(C(=O)Nc4cc(F)cc(F)c4)CC3)C2c2ccccn2)c1` (racemic), the IC50 in data set [2] was 2.38 µM. For the compound `O=C(Nc1ccc(F)c(F)c1)N1CCC2(CC1)C(=O)N(c1ccc(F)c(Cl)c1)C2c1ccccn1` (stereo in doubt; 40b) [listing 1 of 2 here], the inhibition in data set [1] is 39%. Regarding `CC[C@H](C)[C@H](NC(=O)N1CCC2(CC1)CN(c1cccc(F)c1)C2c1ccc(Cl)cc1)C(=O)OC` (stereo in doubt; 22a) [listing 1 of 2 here], the inhibition in data set [1] is 8.5%.

For the compound `O=C(Nc1ccc(F)c(F)c1)N1CCC2(CC1)C(=O)N(c1ccc(F)c(Cl)c1)C2c1ccccn1` (stereo in doubt; 40b) [listing 2 of 2 here], the IC50 in data set [2] is 0.402 µM. Turning to `O=C(Nc1ccc(F)c(F)c1)N1CCC2(CC1)C(=O)N(c1cccc(Cl)c1)C2c1cccc[n+]1[O-]` (stereo in doubt; form 1), the IC50 in data set [2] is 0.698 µM. Also, the fraction unbound in data set [4] is 0.066. On to `CC[C@H](C)[C@H](NC(=O)N1CCC2(CC1)CN(c1cccc(F)c1)C2c1ccc(Cl)cc1)C(=O)OC` (stereo in doubt; 22a) [listing 2 of 2 here], for which, in data set [2], the IC50 amounted to 0.146 µM. Consider `O=C(Nc1cc(F)cc(F)c1)N1CCC2(CC1)CN(C1CC1)C2c1ccc(Cl)cc1` (racemic), for which the IC50 in data set [2] was 0.398 µM. Besides, the fraction unbound in data set [4] is 0.002. On to `N#Cc1cccc(NC(=O)N2CCC3(CC2)C(=O)N(c2cccc(Cl)c2)C3c2ccccn2)c1` (stereo in doubt; 43b), for which the IC50 in data set [2] was determined as 0.855 µM. Besides, the fraction unbound in data set [4] is 0.012. Regarding `CC[C@H](C)[C@H](NC(=O)N1CCC2(CC1)C(=O)N(c1cccc(F)c1)C2c1ccc(Cl)cc1)C(=O)OC` (stereo in doubt; 23b) [listing 2 of 2 here], the IC50 in data set [2] was found to be 0.872 µM. In the case of `COC(=O)[C@H](CO)NC(=O)N1CCC2(CC1)C(=O)N(c1cccc(F)c1)C2c1ccc(Cl)cc1` (stereo not given in full), the IC50 in data set [2] was 3.33 µM. The inhibition in data set [1] is 6%. As for `O=C(Nc1ccc(F)c(F)c1)N1CCC2(CC1)C(=O)N(c1cccc(Cl)c1)C2c1cccc[n+]1[O-]` (stereo in doubt; form 2), the IC50 in data set [2] is 1.5 µM.

Take `O=C(Nc1cccc(C(F)(F)F)c1)N1CCC2(CC1)C(=O)N(c1ccc(F)c(F)c1)C2c1ccccn1` (stereo in doubt; 41a): the IC50 in data set [2] came to 0.017 µM. Turning to `O=C(Nc1cc(F)cc(F)c1)N1CCC2(CC1)C(=O)N(c1cccc(F)c1)C2c1ccc(Cl)cc1` (stereo in doubt; 36a) [listing 2 of 2 here], in data set [1], the inhibition stood at 19.3%. For `CN1CC2(CCN(C(=O)Nc3cc(F)cc(F)c3)CC2)C1c1ccc(Cl)cc1` (racemic), the IC50 in data set [2] is 0.214 µM. Besides, the inhibition in data set [1] was determined as 25%. Regarding `CC[C@H](C)[C@H](NC(=O)N1CCC2(CC1)CN(C1CC1)C2c1ccc(Cl)cc1)C(=O)OC` (mixture of isomers), the results for the IC50 in data set [2] and in data set [3] were 0.325 µM and 0.713 µM, respectively.

`O=C(Nc1cc(F)cc(F)c1)N1CCC2(CC1)C(=O)N(c1cccc(F)c1)C2c1ccc(Cl)cc1` (stereo in doubt; 36b): the inhibition in data set [1] was 6.79%.

Take `O=C(Nc1cc(F)cc(F)c1)N1CCC2(CC1)C(=O)N(c1ccc(F)c(Cl)c1)C2c1ccccn1` (stereo in doubt; 39b): the IC50 in data set [2] is 0.176 µM. Turning to `O=C(Nc1cc(F)cc(F)c1)N1CCC2(CC1)CN(c1cccc(F)c1)C2c1ccc(Cl)cc1` (stereo in doubt; 35a) [listing 2 of 2 here], in data set [1], the inhibition amounted to 6.22%. On to `O=C(Nc1ccc(F)c(F)c1)N1CCC2(CC1)C(=O)N(c1ccc(F)c(Cl)c1)C2c1ccccn1` (stereo in doubt; 40a), for which the inhibition in data set [1] turned out to be 48%. As for `N#Cc1cccc(NC(=O)N2CCC3(CC2)C(=O)N(c2cccc(F)c2)C3c2ccc(Cl)cc2)c1` (stereo in doubt; 37b) [listing 2 of 2 here], the IC50 in data set [2] worked out at 1.06 µM.

As for `CC[C@H](C)[C@H](NC(=O)N1CCC2(CC1)CN(C(C)C)C2c1ccc(Cl)cc1)C(=O)OC` (stereo in doubt; 2b), the IC50 in data set [2] came out at 0.733 µM; in data set [3] it was 3.2 µM.

In the case of `CC(C)CN1CC2(CCN(C(=O)Nc3cc(F)cc(F)c3)CC2)C1c1ccc(Cl)cc1` (racemic), in data set [2], the IC50 was found to be 0.177 µM. Moreover, the inhibition in data set [1] came out at 53%. In the case of `CC[C@H](C)[C@H](NC(=O)N1CCC2(CC1)C(=O)N(c1cccc(F)c1)C2c1ccc(Cl)cc1)C(=O)OC` (stereo in doubt; 23a) [listing 1 of 2 here], the IC50 in data set [2] is 0.045 µM; in data set [3] it was 0.109 µM. As to `CC[C@H](C)[C@H](NC(=O)N1CCC2(CC1)C(=O)N(c1cccc(F)c1)C2c1ccc(Cl)cc1)C(=O)NC` (stereo not given in full), the inhibition in data set [1] was found to be 4.8%. For the compound `CC[C@H](C)[C@H](NC(=O)N1CCC2(CC1)C(=O)N(c1cccc(F)c1)C2c1ccc(Cl)cc1)C(=O)OC` (stereo in doubt; 23a) [listing 2 of 2 here], the inhibition in data set [1] was found to be 6.18%. Consider `CC[C@H](C)[C@H](NC(=O)N1CCC2(CC1)CN(c1cccc(F)c1)C2c1ccc(Cl)cc1)C(=O)OC` (stereo in doubt; 22b) [listing 2 of 2 here], for which, in data set [1], the inhibition was 12.5%. As to `CC[C@H](C)[C@H](NC(=O)N1CCC2(CC1)C(=O)N(C)C2c1ccc(Cl)cc1)C(=O)OC` (mixture of isomers), the IC50 in data set [2] was 0.8 µM. In addition, in data set [1], the inhibition was 3.12%.
